Experimental data reported in article PMC8151276, “An Integrated Approach toward NanoBRET Tracers for Analysis of GPCR Ligand Engagement” (Molecules, 2021).

Experiments:
Type in all cases: binding
ADORA1 = biological target: T1, ADORA1 (Homo sapiens, UniProt P30542); assay: NanoBRET screen HiBiT-ADORA1 in HEK293; conditions: ADORA1
T1 construct: purchased Promega (in-house HiBiT-GPCR construct library, NanoBRET)
T1 sequence (P30542 1-326): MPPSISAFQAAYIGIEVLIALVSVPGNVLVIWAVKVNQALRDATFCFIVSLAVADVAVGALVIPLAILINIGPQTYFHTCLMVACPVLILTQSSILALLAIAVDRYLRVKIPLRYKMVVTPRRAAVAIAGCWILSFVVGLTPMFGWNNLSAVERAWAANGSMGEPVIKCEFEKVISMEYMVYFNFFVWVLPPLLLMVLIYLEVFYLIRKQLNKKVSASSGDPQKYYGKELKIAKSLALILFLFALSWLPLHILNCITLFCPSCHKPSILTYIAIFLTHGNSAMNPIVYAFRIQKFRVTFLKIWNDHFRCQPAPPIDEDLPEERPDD
Experimental: (§1) Each tracer candidate was screened across the entire library of HiBiT-GPCR constructs using NanoBRET as the detection modality. As depicted in Figure 4A, the specificity of interactions was evaluated through decrease in BRET due to competitive displacement of a bound tracer by excess parental compound. Each tracer was analyzed for binding to each HiBiT-GPCR fusion in the absence and in the presence of competing parental compound. Briefly, HEK293 cells were transfected with HiBiT-GPCR constructs diluted into promoterless DNA to reduce expression and maximize translocation to the cell surface. Each tracer candidate was then screened at concentrations of 1 μM and 0.1 μM across cells expressing these fusions. Cells were treated for 1.5 h with tracer either alone or in the presence of 20 μM competing parental compound (i.e., control). BRET was measured upon addition of purified LgBiT and subsequent complementation with HiBiT genetically fused to a GPCR. The specificity of interactions was assessed through a decrease in BRET signal due to competitive displacement of the bound tracer. To further gauge the robustness of these interactions, the fold response over the control (i.e., BRETtracer/BRETcontrol) was calculated. We chose a 1.5-fold response, which translates to ≥7-fold signal over noise as the minimal threshold required to score an interaction as positive. […]. Below we highlight the screening results obtained for our exemplary fluorescent tracers based on Clozapine, Amitriptyline and AZD1283.
(§2) HiBiT-GPCR DNA constructs were diluted in 10 mM Tris pH 8 to a final concentration of 0.01 μg/μL, arrayed in 96-well plates and stored at −20 °C. For transfection, HEK293 cells were suspended in Opti-MEM (without phenol red) supplemented with 2% fetal bovine serum (Seradigm) and 100 units/mL penicillin–streptomycin (Gibco) at a final concentration of 220,000 cells/mL and dispensed into white 96-well plates at 90 μL/well. Subsequent transfections and screens were carried using an Agilent Bravo Automated Liquid Handling Platform. First, the 96-well HiBiT DNA arrays were diluted 25-fold in Opti-MEM (without serum or phenol red) to a final concentration of 0.0004 μg/μL and 20 μL of the diluted DNAs were transferred into new 96-well plates. Next, promoterless carrier DNA (1 μg/μL) was diluted 25-fold (0.04 μg/μL) and then dispensed into the diluted arrays at 20 μL/well. Following brief mixing, Viafect transfection reagent (Promega) diluted 16-fold into Opti-MEM was dispensed into the plates at 40 μL/well. After mixing by pipetting, plates were incubated for 10 min on the pipetting station deck. The DNA-transfection reagent complexes were then added to plates containing cells. To facilitate the screen, 10 μL of DNA-transfection reagent complexes were added in duplicates to the top 4 and bottom 4 rows, resulting in two identical 48-well arrays per plate. Plates with transfected cells were incubated for 18–20 h at 37 °C/5% CO2. A screen of each tracer across the entire library using two different concentrations requires duplicate plates of transfected cells. Depending on the number of tracers being screened, transfections can be scaled up using the same ratios. The next day, for each tracer, four 20× screening solutions in tracer dilution buffer (Promega) were prepared: two duplicates at final concentration of 20 μM and two duplicates at a final concentration of 2 μM. A competing unmodified compound was added to one of each duplicate at a final concentration of 400 μM. The four resulting solutions were diluted 4-fold in Opti-MEM without serum or phenol red to generate 5× solutions (5 µM and 0.5 µM tracer +/− 100 μM competing compound). To screen the library, a BioTek MultiFlo FX liquid dispenser was used to dispense 22.5 µL of tracer solution to the top 4 rows and 22.5 µL tracer + competing compound solution to the 4 bottom rows. Plates were briefly mixed on an orbital shaker and incubated for 1.5 h at room temperature. […]

P2RY11 = biological target: T2, P2RY11 (Homo sapiens, UniProt Q96G91); assay: NanoBRET screen HiBiT-P2RY11 in HEK293; conditions: P2RY11
T2 construct: purchased Promega (in-house HiBiT-GPCR construct library, NanoBRET)
T2 sequence (Q96G91 1-374): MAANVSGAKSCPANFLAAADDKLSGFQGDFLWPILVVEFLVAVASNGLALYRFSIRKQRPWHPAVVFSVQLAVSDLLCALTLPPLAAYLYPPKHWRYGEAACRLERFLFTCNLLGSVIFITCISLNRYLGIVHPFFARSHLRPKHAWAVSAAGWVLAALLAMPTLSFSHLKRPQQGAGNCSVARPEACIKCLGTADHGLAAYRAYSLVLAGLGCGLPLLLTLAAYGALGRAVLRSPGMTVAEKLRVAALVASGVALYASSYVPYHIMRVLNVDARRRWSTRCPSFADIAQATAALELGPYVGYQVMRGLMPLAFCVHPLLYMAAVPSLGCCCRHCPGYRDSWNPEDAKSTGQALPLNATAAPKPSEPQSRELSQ
Experimental: as §1, §2

GRM5 = biological target: T3, GRM5 (Homo sapiens, UniProt P41594); assay: NanoBRET screen HiBiT-GRM5 in HEK293; conditions: GRM5
T3 construct: purchased Promega (in-house HiBiT-GPCR construct library, NanoBRET)
Experimental: as §1, §2

FZD9 = biological target: T4, FZD9 (Homo sapiens, UniProt O00144); assay: NanoBRET screen HiBiT-FZD9 in HEK293; conditions: FZD9
T4 construct: purchased Promega (in-house HiBiT-GPCR construct library, NanoBRET)
T4 sequence (O00144 23-591): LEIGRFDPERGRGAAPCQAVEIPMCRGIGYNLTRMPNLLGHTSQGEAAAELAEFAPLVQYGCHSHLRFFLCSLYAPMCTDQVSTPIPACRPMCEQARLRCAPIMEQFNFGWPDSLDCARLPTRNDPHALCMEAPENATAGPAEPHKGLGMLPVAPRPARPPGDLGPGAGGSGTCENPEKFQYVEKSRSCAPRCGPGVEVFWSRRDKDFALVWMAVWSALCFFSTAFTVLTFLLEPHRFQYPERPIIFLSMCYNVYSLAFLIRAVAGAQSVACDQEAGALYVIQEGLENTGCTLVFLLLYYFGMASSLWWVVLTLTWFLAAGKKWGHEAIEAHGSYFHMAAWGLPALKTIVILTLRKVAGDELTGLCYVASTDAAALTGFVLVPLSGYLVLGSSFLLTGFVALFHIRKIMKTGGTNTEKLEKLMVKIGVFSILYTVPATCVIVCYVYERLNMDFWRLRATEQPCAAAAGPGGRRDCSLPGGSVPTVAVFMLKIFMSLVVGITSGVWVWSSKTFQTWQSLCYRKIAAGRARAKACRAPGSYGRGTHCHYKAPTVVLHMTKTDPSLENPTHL
Experimental: as §1, §2

T3 sequence (P41594 21-1212): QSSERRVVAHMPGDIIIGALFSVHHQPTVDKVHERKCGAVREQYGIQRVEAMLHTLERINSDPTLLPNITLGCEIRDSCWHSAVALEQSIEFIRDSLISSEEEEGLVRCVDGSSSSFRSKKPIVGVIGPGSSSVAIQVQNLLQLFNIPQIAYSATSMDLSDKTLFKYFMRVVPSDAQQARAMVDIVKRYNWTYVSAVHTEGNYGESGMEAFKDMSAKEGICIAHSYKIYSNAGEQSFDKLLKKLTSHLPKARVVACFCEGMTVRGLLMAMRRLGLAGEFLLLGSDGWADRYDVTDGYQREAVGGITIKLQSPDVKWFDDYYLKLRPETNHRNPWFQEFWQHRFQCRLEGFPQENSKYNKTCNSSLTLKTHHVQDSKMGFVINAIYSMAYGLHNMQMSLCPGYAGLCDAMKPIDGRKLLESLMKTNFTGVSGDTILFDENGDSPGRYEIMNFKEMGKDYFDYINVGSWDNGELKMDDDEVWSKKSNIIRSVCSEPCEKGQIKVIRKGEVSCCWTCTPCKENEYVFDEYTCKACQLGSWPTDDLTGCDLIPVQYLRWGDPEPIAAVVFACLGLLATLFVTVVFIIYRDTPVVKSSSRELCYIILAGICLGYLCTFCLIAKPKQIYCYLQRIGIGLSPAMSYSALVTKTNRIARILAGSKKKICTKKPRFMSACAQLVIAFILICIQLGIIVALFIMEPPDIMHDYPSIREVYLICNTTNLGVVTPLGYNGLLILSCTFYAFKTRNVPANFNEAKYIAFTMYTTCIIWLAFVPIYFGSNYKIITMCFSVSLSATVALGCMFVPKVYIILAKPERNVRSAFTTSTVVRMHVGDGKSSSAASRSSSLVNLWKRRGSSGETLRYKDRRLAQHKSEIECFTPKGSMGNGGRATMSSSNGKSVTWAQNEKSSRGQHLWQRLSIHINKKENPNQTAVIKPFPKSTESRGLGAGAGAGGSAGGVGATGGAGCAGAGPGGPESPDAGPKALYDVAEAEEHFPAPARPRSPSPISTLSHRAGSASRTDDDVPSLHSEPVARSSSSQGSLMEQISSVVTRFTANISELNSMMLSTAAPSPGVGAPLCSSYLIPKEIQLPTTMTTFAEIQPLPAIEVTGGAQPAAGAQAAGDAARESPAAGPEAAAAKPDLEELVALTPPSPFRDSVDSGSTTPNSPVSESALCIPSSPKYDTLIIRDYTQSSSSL

NanoBRET Fold Response (ADORA1; 0.1μM tracer)	NanoBRET Fold Response (ADORA1; 1μM tracer)	NanoBRET Fold Response (P2RY11; 0.1μM tracer)	NanoBRET Fold Response (P2RY11; 1μM tracer)	NanoBRET Fold Response (GRM5; 0.1μM tracer)	NanoBRET Fold Response (GRM5; 1μM tracer)	NanoBRET Fold Response (FZD9; 0.1μM tracer)	NanoBRET Fold Response (FZD9; 1μM tracer)	SMILES	NanoBRET Fold Response (ADORA1; 0.1μM)	NanoBRET Fold Response (ADORA1; 1μM)	NanoBRET Fold Response (P2RY11; 0.1μM)	NanoBRET Fold Response (P2RY11; 1μM)	NanoBRET Fold Response (GRM5; 0.1μM)	NanoBRET Fold Response (GRM5; 1μM)	NanoBRET Fold Response (FZD9; 0.1μM)	NanoBRET Fold Response (FZD9; 1μM)
								O=C(CCc1ccc2n1[B-](F)(F)[N+]1=C(c3ccc[nH]3)C=CC1=C2)NCc1ccc(C(=O)NCCOCCOCCNCC(O)COc2cccc3ccccc23)cc1 (stereo not shown) [Propranolol-3-NB590]	0.98	0.98	1.03	0.96	1.04	1.02	0.98	1.09
1.00	1.01	1.04	0.93	0.99	1.10	1.00	1.39	O=C(CCOCCOCCOCCOCCNC(=O)CCc1ccc2n1[B-](F)(F)[N+]1=C(c3ccc[nH]3)C=CC1=C2)NCCCN1CCN(C2=Nc3cc(Cl)ccc3Nc3ccccc32)CC1 [Clozapine-a-2-NB590]								
